From the supplement of paper PMC12137928
Where a name gives a salt, the structure may show the parent alone.

System: HCT116
Conditions: 72 h
Outline: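 HCT116 cells were seeded at 250 per well in 1536-well plates and left 5 h to attach. CellTiter-Glo luminescence was scaled to vehicle (0%) and positive control (-100%), then pattern-corrected. IC50 and maximal efficacy came from four-parameter Hill fits.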

Row | Compound | IC50 cell viability (ICRF193 0 nM) [µM] | IC50 cell viability (ICRF193 200 nM) [µM]
1 | C#C[C@]1(O)CC[C@H]2[C@@H]3CCC4=CCCC[C@@H]4[C@H]3CC[C@@]21C [Lynestrenol] | > 45.8 | > 45.8
2 | Cc1cnc(NC(=O)C2=C(O)c3ccccc3S(=O)(=O)N2C)s1 [MELOXICAM SODIUM] | > 45.8 | > 45.8
3 | Cc1cccc(C)c1NC(=O)C1CCCCN1C (stereo not given) [MEPIVACAINE HYDROCHLORIDE] | > 45.8 | > 45.8
4 | COC(=O)C(c1ccccc1)C1CCCCN1 (stereo not given) [METHYLPHENIDATE HYDROCHLORIDE] | > 45.8 | > 45.8
5 | CS(=O)(=O)n1cc2c(n1)CN([C@H]1CO[C@H](c3cc(F)ccc3F)[C@@H](N)C1)C2 [MK-3102] | > 45.8 | > 45.8
6 | CC(C)(C)NCC(O)c1cc(Cl)c(N)c(C(F)(F)F)c1 (stereo not given) [Mabuterol hydrochloride] | > 45.8 | > 45.8
7 | CCCNS(=O)(=O)Nc1ncnc(OCCOc2ncc(Br)cn2)c1-c1ccc(Br)cc1 [Macitentan] | > 45.8 | > 45.8
8 | NCc1ccc(S(N)(=O)=O)cc1 [Mafenide hydrochloride] | > 45.8 | > 45.8
9 | CCOC(=O)CC(SP(=S)(OC)OC)C(=O)OCC (stereo not given) [Malathion] | > 45.8 | > 45.8
10 | O=C(O)/C=C\C(=O)O [Maleic acid] | > 45.8 | > 45.8
11 | CC(C)OC(=O)C(C(=O)OC(C)C)=C1SC=CS1 [Malotilate] | > 45.8 | > 45.8
12 | CN1CCN(c2c(F)cc3c(=O)c(C(=O)O)cn4c3c2OCN4C)CC1 [Marbofloxacin] | > 45.8 | > 45.8
13 | C=C1/C(=C\C=C2/CCC[C@]3(C)[C@@H]([C@H](C)OCCC(C)(C)O)CC[C@@H]23)C[C@@H](O)C[C@@H]1O [Maxacalcitol-D6] | > 45.8 | > 45.8
14 | CN1[C@@H]2CCC(C)(C)[C@H]1C[C@H](OC(=O)C(O)(c1cccs1)c1cccs1)C2 [Mazaticol] | > 45.8 | > 45.8
15 | CCN(CCCCOC(=O)c1ccc(OC)c(OC)c1)C(C)Cc1ccc(OC)cc1 (stereo not given) [Mebeverine hydrochloride] | > 45.8 | > 45.8
16 | C[N+](C)(C)C1CCC(CC2CCC([N+](C)(C)C)CC2)CC1 (stereo not given) [Mebezonium Iodide] | > 45.8 | > 45.8
17 | Cc1cc(C)c(NC(=O)CN(CC(=O)O)CC(=O)O)c(C)c1Br [Mebrofenin] | > 45.8 | > 45.8
18 | CCC(C)C(C)(COC(N)=O)COC(N)=O (stereo not given) [Mebutamate] | > 45.8 | > 45.8
19 | CNC1(C)C2CCC(C2)C1(C)C (stereo not given) [Mecamylamine] | > 45.8 | > 45.8
20 | Cc1ccc(Cl)c(Nc2ccccc2C(=O)O)c1Cl [Meclofenamate sodium] | > 45.8 | > 45.8
21 | CN(C)CCOC(=O)COc1ccc(Cl)cc1 [Meclofenoxate hydrochloride] | > 45.8 | > 45.8
22 | O=P(O)(O)CP(=O)(O)O [Medronic acid] | > 45.8 | > 45.8

Row | Compound | IC50 cell viability (ICRF193 0 nM) [µM] | IC50 cell viability (ICRF193 200 nM) [µM]
23 | CC(=O)O[C@]1(C(C)=O)CC[C@H]2[C@@H]3C[C@H](C)C4=CC(=O)CC[C@]4(C)[C@H]3CC[C@@]21C [Medroxyprogesterone acetate] | > 45.8 | > 45.8
24 | CC(=O)[C@H]1CC[C@H]2[C@@H]3C[C@H](C)C4=CC(=O)CC[C@]4(C)[C@H]3[C@@H](O)C[C@]12C [Medrysone] | > 45.8 | > 45.8
25 | Cc1cccc(Nc2ccccc2C(=O)O)c1C [Mefenamic acid] | > 45.8 | > 45.8
26 | CC(Cc1ccccc1)NCCCCl (stereo not given) [Mefenorex] | > 45.8 | > 45.8
27 | CN(CC1(C)CCCO1)S(=O)(=O)c1ccc(Cl)c(S(N)(=O)=O)c1 (stereo not given) [Mefruside] | > 45.8 | > 45.8
28 | CC(=O)O[C@]1(C(C)=O)CC[C@H]2[C@@H]3C=C(C)C4=CC(=O)CC[C@]4(C)[C@H]3CC[C@@]21C [Megestrol acetate] | > 45.8 | > 45.8
29 | CNC[C@H](O)[C@@H](O)[C@H](O)[C@H](O)CO [Meglumine] | > 45.8 | > 45.8
30 | COc1ccc2[nH]cc(CCNC(C)=O)c2c1 [Melatonin] | > 45.8 | > 45.8
31 | CCCCC/C=C/C/C=C/CCCCCCCC(=O)NC(C)c1ccccc1 (stereo not given) [Melinamide] | > 45.8 | > 45.8
32 | N[C@@H](Cc1ccc(N(CCCl)CCCl)cc1)C(=O)O [Melphalan] | > 45.8 | > 45.8
33 | CC12CC3CC(C)(C1)CC(N)(C3)C2 [Memantine hydrochloride] | > 45.8 | > 45.8
34 | CC1=CC(=O)c2ccccc2C1=O [Menadione] | > 45.8 | > 45.8
35 | CC(C)=CCC/C(C)=C/CC/C(C)=C/CC/C(C)=C/CC/C(C)=C/CC1=C(C)C(=O)c2ccccc2C1=O [Menaquinone] | > 45.8 | > 45.8
36 | C[N+]1(C)CCCC(OC(=O)C(O)(c2ccccc2)c2ccccc2)C1 (stereo not given) [Mepenzolate bromide] | > 45.8 | > 45.8
37 | Cc1ccccc1OCC(O)CO (stereo not given) [Mephenesin] | > 45.8 | > 45.8
38 | CNC(C)(C)Cc1ccccc1 [Mephentermine hemisulfate] | > 45.8 | > 45.8
39 | COC1(O[C@H]2CC[C@H]3[C@@H]4CC[C@H]5C[C@@H]6S[C@@H]6C[C@]5(C)[C@H]4CC[C@]23C)CCCC1 [Mepitiostane (Contains ~15% 3a,4a-Epithio isomer)] | > 45.8 | > 45.8
40 | Cc1ccc2c(n1)Oc1ccc(C(C)C(=O)OCC(=O)N(C)C)cc1C2 (stereo not given) [Mepranoprofen arbamel] | > 45.8 | > 45.8
41 | C[C@H]1C[C@H]2[C@@H]3CCC4=CC(=O)C=C[C@]4(C)[C@H]3C(=O)C[C@]2(C)[C@@]1(O)C(=O)CO [Meprednisone] | > 45.8 | > 45.8
42 | CCCNC(C)(C)COC(=O)c1ccccc1 [Meprylcaine hydrochloride] | > 45.8 | > 45.8
43 | CCC1(c2cccc(O)c2)CCCCN(C)C1 (stereo not given) [Meptazinol hydrochloride] | > 45.8 | > 45.8
44 | O=C([O-])c1ccccc1-c1c2cc(Br)c(=O)cc-2oc2[c]([Hg+])c([O-])c(Br)cc12.[Na+].[Na+].[OH-] [Merbromin] | > 45.8 | > 45.8

Row | Compound | IC50 cell viability (ICRF193 0 nM) [µM] | IC50 cell viability (ICRF193 200 nM) [µM]
45 | C[C@@H](O)[C@H]1C(=O)N2C(C(=O)O)=C(S[C@@H]3CN[C@H](C(=O)N(C)C)C3)[C@H](C)[C@H]12 [Meropenem] | > 45.8 | > 45.8
46 | COC([CH2][Hg+])CNC(=O)c1ccccc1OCC(=O)O.[OH-] (stereo not given) [Mersalyl acid] | > 45.8 | > 45.8
47 | CN1CCCCC1CCN1c2ccccc2Sc2ccc([S+](C)[O-])cc21 (stereo not given) [Mesoridazine] | > 45.8 | > 45.8
48 | C#C[C@]1(O)CC[C@H]2[C@@H]3CCc4cc(OC)ccc4[C@H]3CC[C@@]21C [Mestranol] | > 45.8 | > 45.8
49 | C[C@H](N)[C@H](O)c1cccc(O)c1 [Metaraminol bitartrate] | > 45.8 | > 45.8
50 | Cc1cc(C)cc(OCC2CNC(=O)O2)c1 (stereo not given) [Metaxalone] | > 45.8 | > 45.8
51 | CN(C)C(=N)NC(=N)N [Metformin] | > 45.8 | > 45.8
52 | CC(=O)OC(C)C[N+](C)(C)C (stereo not given) [Methacholine chloride] | > 45.8 | > 45.8
53 | C=C1c2cccc(O)c2C(=O)C2=C(O)[C@]3(O)C(=O)C(C(N)=O)=C(O)[C@@H](N(C)C)[C@@H]3[C@@H](O)[C@H]12 [Methacycline hydrochloride] | > 45.8 | > 45.8
54 | CC[N+](C)(CC)CCOC(=O)C1c2ccccc2Oc2ccccc21 [Methantheline bromide] | > 45.8 | > 45.8
55 | CN(C)CCN(Cc1cccs1)c1ccccn1 [Methapyrilene hydrochloride] | > 45.8 | > 45.8
56 | CCC1(CC)C(=O)NC(=O)N(C)C1=O [Metharbital] | > 45.8 | > 45.8
57 | CC(=O)/N=c1/sc(S(N)(=O)=O)nn1C [Methazolamide] | > 45.8 | > 45.8
58 | C1N2CN3CN1CN(C2)C3 [Methenamine] | > 45.8 | > 45.8
59 | CC(=O)O[C@H]1CC[C@H]2[C@@H]3CC[C@H]4CC(=O)C=C(C)[C@]4(C)[C@H]3CC[C@]12C [Methenolone (acetate)] | > 45.8 | > 45.8
60 | CCCCCCC(=O)O[C@H]1CC[C@H]2[C@@H]3CC[C@H]4CC(=O)C=C(C)[C@]4(C)[C@H]3CC[C@]12C [Methenolone enanthate] | > 45.8 | > 45.8
61 | CC[C@@H](CO)NC(=O)[C@@H]1C=C2c3cccc4[nH]cc(c34)C[C@H]2N(C)C1 [Methergine] | > 45.8 | > 45.8
62 | COc1cccc(OC)c1C(=O)N[C@@H]1C(=O)N2[C@@H]1SC(C)(C)[C@@H]2C(=O)O [Methicillin sodium hydrate] | > 45.8 | > 45.8
63 | Cn1ccnc1S [Methimazole] | > 45.8 | > 45.8
64 | COc1ccccc1OCC(O)COC(N)=O (stereo not given) [Methocarbamol] | > 45.8 | > 45.8
65 | COc1ccc(OC)c(C(O)C(C)N)c1 (stereo not given) [Methoxamine hydrochloride] | > 45.8 | > 45.8
